# Patent US20250215010A1, “DIAZABICYCLOOCTANE DERIVATIVES USEFUL AS MATRIX METALLOPROTEINASE INHIBITORS” (VASA THERAPEUTICS SPOLKA Z OGRANICZONA ODPOWIEDZIALNOSCIA, priority 2022, published 2025)
# Read-outs that look alike come from different tables or passages of the source.
# What was measured:
# Type in all cases: biochemical
# [1] = target: T1, MMP2 (Homo sapiens, UniProt P08253); experiment: MMP-2 colorimetric inhibition assay (Enzo kit BML-AK408)
# T1 sequence (P08253 110-660): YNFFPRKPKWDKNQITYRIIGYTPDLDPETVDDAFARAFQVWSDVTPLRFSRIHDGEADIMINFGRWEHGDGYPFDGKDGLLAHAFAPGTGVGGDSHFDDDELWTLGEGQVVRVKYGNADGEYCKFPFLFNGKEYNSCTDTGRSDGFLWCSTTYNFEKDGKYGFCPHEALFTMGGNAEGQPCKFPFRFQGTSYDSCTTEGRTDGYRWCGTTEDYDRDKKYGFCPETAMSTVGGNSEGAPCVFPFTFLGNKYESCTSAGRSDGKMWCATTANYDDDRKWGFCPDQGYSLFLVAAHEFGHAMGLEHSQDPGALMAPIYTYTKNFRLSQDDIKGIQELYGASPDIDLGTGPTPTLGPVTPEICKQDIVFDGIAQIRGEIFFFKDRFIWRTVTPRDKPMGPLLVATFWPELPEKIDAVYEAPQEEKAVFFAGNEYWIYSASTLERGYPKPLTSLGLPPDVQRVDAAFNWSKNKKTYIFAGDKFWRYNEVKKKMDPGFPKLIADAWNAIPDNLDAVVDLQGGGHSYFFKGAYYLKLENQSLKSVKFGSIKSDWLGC
# Experimental: (§1) The inhibitory activities of the compounds of the invention were assessed in 96-well microplate format using MMP1, MMP2, MMP9 and MMP13 colorimetric assay kits and TACE fluorometric assay kit from Enzo Life Sciences, Inc. The inhibitory effect of the compounds of the invention on ADAM10 activity were evaluated in 96-well microplate format using fluorometric assay from AnaSpec, Inc.
# (§2) The MMP-2 Colorimetric Drug Discovery Kit (catalog #BML-AK408) is a complete assay system designed to screen MMP-2 inhibitors using a thiopeptide as a chromogenic substrate (Ac-PLG-[2-mercapto-4-methylpentanoyl]-LG-OC2H5). The MMP cleavage site peptide bond is replaced by a thioester bond in the thiopeptide. Hydrolysis of this bond by an MMP produces a sulfhydryl group, which reacts with DTNB [5,5′-dithiobis(2-nitrobenzoic acid), Ellman's reagent] to form 2-nitro-5-thiobenzoic acid, that can be detected spectrophotometrically.
# (§3) The inhibitory activities of the compounds of the invention against MMP1, MMP2, MMP9 and MMP13 were tested according to the manufacturer's assay protocols and the absorbance at 415 nm was monitored using the Tecan Infinite® 200 Pro F Nano^+ microplate reader.
# (§4) The normalized values were analyzed using GraphPadPrism 9 for Windows (GraphPad Software, San Diego, CA, USA) software by plotting inhibition curves and determining the IC50 values (in nM).
# [2] = target: T2, MMP13 (Homo sapiens, UniProt P45452); experiment: MMP-13 colorimetric inhibition assay (Enzo kit BML-AK412)
# T2 construct: purchased Enzo Life Sciences, Inc. BML-AK412
# Experimental: as §1
# as §2, with “MMP-13” for “MMP-2”, “#BML-AK412)” for “#BML-AK408)”, “screen” for “screen MMP-2”, “inhibitors of matrix metalloproteinase-13” for “inhibitors”
# as §3, §4
# [3] = target: MMP9 (Homo sapiens, UniProt P14780); experiment: MMP-9 colorimetric inhibition assay (Enzo kit BML-AK410)
# Experimental: as §1
# as §2, with “MMP-9” for “MMP-2”, “#BML-AK410)” for “#BML-AK408)”, “screen” for “screen MMP-2”, “inhibitors of matrix metalloproteinase-9” for “inhibitors”
# as §3, §4
# [4] = target: T3, MMP1 (Homo sapiens, UniProt P03956); experiment: MMP-1 colorimetric inhibition assay (Enzo kit BML-AK404)
# T3 sequence (P03956 100-269 limits assumed): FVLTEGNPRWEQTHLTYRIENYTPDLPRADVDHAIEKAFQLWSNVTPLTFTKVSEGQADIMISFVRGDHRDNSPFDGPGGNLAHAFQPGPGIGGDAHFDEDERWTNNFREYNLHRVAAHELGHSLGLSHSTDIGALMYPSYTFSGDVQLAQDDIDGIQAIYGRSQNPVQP
# Experimental: as §1
# as §2, with “MMP-1” for “MMP-2”, “#BML-AK404)” for “#BML-AK408)”, “screen” for “screen MMP-2”, “inhibitors of matrix metalloproteinase-1” for “inhibitors”
# as §3, §4
# [5] = target: ADAM17 (TACE) (Homo sapiens, UniProt P78536); experiment: TACE fluorometric inhibition assay (Enzo kit BML-AK310)
# Experimental: as §1
# The TACE Fluorometric Drug Discovery Kit (catalog #BML-AK310) is a complete assay system designed to screen ADAM17 (TACE) inhibitors using a quenched fluorogenic peptide: Mca-PLAQAV-Dpa-RSSSR—NH2. Mca fluorescence is quenched by the Dpa group until cleavage by proteases separates the two moieties leading to an increase in Mca fluorescence.
# The inhibitory activity of the compounds of the invention against TACE was tested according to the manufacturer's assay protocol and the fluorescence was monitored at excitation/emission wavelengths=320 nm/420 nm using Tecan Infinite® 200 Pro F Nano^+ microplate reader.
# as §4
# [6] = thiopeptide substrate, absorbance 415 nm, read-out: MMP 2 IC50 class
# [7] = thiopeptide substrate, absorbance 415 nm, read-out: MMP 13 IC50 class
# [8] = thiopeptide substrate, absorbance 415 nm, read-out: MMP 9 IC50 class
# [9] = thiopeptide substrate, absorbance 415 nm, read-out: MMP 1 IC50 class
# [10] = quenched fluorogenic peptide, ex/em 320/420 nm, read-out: TACE IC50 class
# MMP9, sequence (P14780 94-707): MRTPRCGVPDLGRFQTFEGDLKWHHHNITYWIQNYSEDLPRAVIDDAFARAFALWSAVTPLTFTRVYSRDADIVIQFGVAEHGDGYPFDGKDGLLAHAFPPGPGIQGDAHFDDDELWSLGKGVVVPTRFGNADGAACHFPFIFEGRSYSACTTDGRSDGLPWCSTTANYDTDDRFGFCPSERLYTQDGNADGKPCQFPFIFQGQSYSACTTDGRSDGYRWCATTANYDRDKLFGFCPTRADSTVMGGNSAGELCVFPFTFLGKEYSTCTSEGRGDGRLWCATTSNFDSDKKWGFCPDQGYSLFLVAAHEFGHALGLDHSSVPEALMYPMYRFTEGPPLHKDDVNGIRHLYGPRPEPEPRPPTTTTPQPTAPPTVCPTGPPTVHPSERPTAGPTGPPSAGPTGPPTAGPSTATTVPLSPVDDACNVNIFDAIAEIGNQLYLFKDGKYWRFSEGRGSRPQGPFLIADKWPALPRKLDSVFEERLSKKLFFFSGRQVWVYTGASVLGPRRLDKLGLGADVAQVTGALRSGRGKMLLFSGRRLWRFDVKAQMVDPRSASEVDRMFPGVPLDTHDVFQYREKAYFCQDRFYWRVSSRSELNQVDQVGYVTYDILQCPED
# ADAM17 (TACE), sequence (P78536 215-477 limits assumed): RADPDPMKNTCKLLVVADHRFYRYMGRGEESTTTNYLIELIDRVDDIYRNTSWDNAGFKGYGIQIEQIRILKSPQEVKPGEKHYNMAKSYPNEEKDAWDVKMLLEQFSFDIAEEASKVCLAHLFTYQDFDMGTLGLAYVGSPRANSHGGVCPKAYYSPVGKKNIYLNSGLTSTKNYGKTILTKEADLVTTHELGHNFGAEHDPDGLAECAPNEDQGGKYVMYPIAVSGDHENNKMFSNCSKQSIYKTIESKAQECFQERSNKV
SMILES,"IC50 [1, 6]","IC50 [2, 7]","IC50 [3, 8]","IC50 [4, 9]","IC50 [5, 10]",IC50 [1],IC50 [4],IC50 [2],IC50 [5],IC50 [3]
"COCCOC(=O)N1[C@@H]2CC[C@H]1[C@H](C(=O)NO)N(S(=O)(=O)c1cc(F)c(Oc3ccc(Cl)cc3)c(F)c1)C2 [Example 2, (1S,2R,5R)-2-methoxyethyl 3-((4-(4-chlorophenoxy)-3,5-difluoro-phenyl)sulfonyl)-2-(hydroxycarbamoyl)-3,8-diazabicyclo-[3.2.1]octane-8-carboxylate]",0.05 to 1 µM,0.05 to 1 µM,0.05 to 1 µM,,,,,,,
"COCCOC(=O)N1[C@H]2CC[C@@H]1[C@@H](C(=O)NO)N(S(=O)(=O)c1cc(F)c(Oc3ccc(Cl)cc3)c(F)c1)C2 [Example 3, 2-methoxyethyl (1R,2S,5S)-3-((4-(4-chlorophenoxy)-3,5-difluorophenyl)-sulfonyl)-2-(hydroxycarbamoyl)-3,8-diaza-bicyclo[3.2.1]octane-8-carboxylate]",1 to 10 µM,1 to 10 µM,1 to 10 µM,,,,,,,
"COCCOC(=O)N1[C@@H]2CC[C@H]1[C@H](C(=O)NO)N(S(=O)(=O)c1ccc(-c3cccc(F)c3)nc1)C2 [Example 4, 2-methoxyethyl (1S,2R,5R)-3-((6-(3-fluorophenyl)pyridin-3-yl)sulfonyl)-2-(hydroxycarbamoyl)-3,8-diaza-bicyclo[3.2.1]octane-8-carboxylate]",0.05 to 1 µM,0.05 to 1 µM,1 to 10 µM,,,,,,,
"COCCOC(=O)N1[C@@H]2CC[C@H]1[C@H](C(=O)NO)N(S(=O)(=O)c1cnc(Oc3ccc(F)cc3)c(F)c1)C2 [Example 6, 2-methoxyethyl (1S,2R,5R)-3-((5-fluoro-6-(4-fluoro-phenoxy)pyridin-3-yl)sulfonyl)-2-(hydroxycarbamoyl)-3,8-diazabicyclo[3.2.1]-octane-8-carboxylate]",< 0.05 µM,< 0.05 µM,< 0.05 µM,1 to 10 µM,1 to 10 µM,,,,,
"COCCOC(=O)N1[C@@H]2CC[C@H]1[C@H](C(=O)NO)N(S(=O)(=O)c1ccc(OC3CCC(OC)CC3)nc1)C2 (stereo partly drawn) [Example 11, 2-methoxyethyl (1S,2R,5R)-2-(hydroxycarbamoyl)-3-((6-((4-methoxy-cyclohexyl)oxy)-pyridin-3-yl)-sulfonyl)-3,8-diaza-bicyclo[3.2.1]octane-8-carboxylate]",,,,,,< 0.05 µM,1 to 10 µM,0.05 to 1 µM,1 to 10 µM,< 0.05 µM
"COCCOC(=O)N1[C@@H]2CC[C@H]1[C@H](C(=O)NO)N(S(=O)(=O)c1ccc(OC3CCC(C)(C)CC3)nc1)C2 [Example 12, 2-methoxyethyl (1S,2R,5R)-3-((6-((4,4-dimethyl-cyclohexyl)-oxy)pyridin-3-yl)-sulfonyl)-2-(hydroxycarbamoyl)-3,8-diazabicyclo[3.2.1]-octane-8-carboxylate]",0.05 to 1 µM,0.05 to 1 µM,< 0.05 µM,1 to 10 µM,1 to 10 µM,,,,,
"COCCOC(=O)N1[C@@H]2CC[C@H]1[C@H](C(=O)NO)N(S(=O)(=O)c1ccc(OC3CCOCC3)nc1)C2 [Example 13, 2-methoxyethyl (1S,2R,5R)-2-(hydroxycarbamoyl)-3-((6-((tetrahydro-2H-pyran-4-yl)oxy)-pyridin-3-yl)sulfonyl)-3,8-diazabicyclo[3.2.1]-octane-8-carboxylate]",0.05 to 1 µM,< 0.05 µM,< 0.05 µM,1 to 10 µM,1 to 10 µM,,,,,
"COCCOC(=O)N1[C@@H]2CC[C@H]1[C@H](C(=O)NO)N(S(=O)(=O)c1ccc(Oc3ccc(F)cc3)cn1)C2 [Example 14, 2-methoxyethyl (1S,2R,5R)-3-((5-(4-fluorophenoxy)pyridin-2-yl)sulfonyl)-2-(hydroxycarbamoyl)-3,8-diazabicyclo[3.2.1]octane-8-carboxylate]",< 0.05 µM,< 0.05 µM,< 0.05 µM,1 to 10 µM,1 to 10 µM,,,,,
"COCCOC(=O)N1[C@@H]2CC[C@H]1[C@H](C(=O)NO)N(S(=O)(=O)c1ccc(Oc3cncc(Cl)c3)nc1)C2 [Example 15, (1S,2R,5R)-2-methoxyethyl 3-((6-((5-chloropyridin-3-yl)oxy)pyridin-3-yl)-sulfonyl)-2-(hydroxycarbamoyl)-3,8-diazabicyclo[3.2.1]-octane-8-carboxylate]",0.05 to 1 µM,0.05 to 1 µM,0.05 to 1 µM,1 to 10 µM,0.05 to 1 µM,,,,,
"COCCOC(=O)N1[C@@H]2CC[C@H]1[C@H](C(=O)NO)N(S(=O)(=O)c1ccc(Oc3ccc(C)nc3)nc1)C2 [Example 16, 2-methoxyethyl (1S,2R,5R)-2-(hydroxycarbamoyl)-3-((6-((6-methylpyridin-3-yl)-oxy)pyridin-3-yl)-sulfonyl)-3,8-diaza-bicyclo[3.2.1]octane-8-carboxylate]",< 0.05 µM,0.05 to 1 µM,0.05 to 1 µM,1 to 10 µM,1 to 10 µM,,,,,
"COCCOC(=O)N1[C@@H]2CC[C@H]1[C@H](C(=O)NO)N(S(=O)(=O)c1cnc(Oc3ccc(F)cc3)cn1)C2 [Example 17, 2-methoxyethyl (1S,2R,5R)-3-((5-(4-fluorophenoxy)-pyrazin-2-yl)sulfonyl)-2-(hydroxycarbamoyl)-3,8-diazabicyclo-[3.2.1]octane-8-carboxylate]",1 to 10 µM,1 to 10 µM,1 to 10 µM,> 10 µM,> 10 µM,,,,,
"COCCOC(=O)N1[C@@H]2CC[C@H]1[C@H](C(=O)NO)N(S(=O)(=O)c1ccc(Oc3nc4cc(F)ccc4o3)c(F)c1)C2 [Example 83, 2-methoxyethyl (1S,2R,5R)-3-((3-fluoro-4-((5-fluoro-benzo[d]oxazol-2-yl)oxy)phenyl)sulfonyl)-2-(hydroxy-carbamoyl)-3,8-diazabicyclo[3.2.1]-octane-8-carboxylate]",1 to 10 µM,1 to 10 µM,1 to 10 µM,,,,,,,
"COCCOC(=O)N1[C@@H]2CC[C@H]1[C@H](C(=O)NO)N(S(=O)(=O)c1ccc(Oc3nc4ccccc4o3)nc1)C2 [Example 84, 2-methoxyethyl (1S,2R,5R)-3-((6-(benzo[d]oxazol-2-yloxy)pyridin-3-yl)sulfonyl)-2-(hydroxycarbamoyl)-3,8-diazabicyclo[3.2.1]octane-8-carboxylate]",> 10 µM,> 10 µM,> 10 µM,,,,,,,
